Patent publication US11576891B2, “Methods of treating or preventing estrogen-related diseases” (ENDORECHERCHE, INC., priority 2010, dated 2023)
“Also recorded” adds a separate entry of the source. Marks after values point to notes of the source that are not given here.

Tests used:
[1] = test system: human endometrial Ishikawa carcinoma cells; conditions: cited from earlier work
[2] = test system: 60- to 70-year-old women; conditions: cited from earlier work
[3] = test system: rat; experiment: biochemical parameters of bone metabolism in rats treated with DHEA and/or EM-800; format: in vivo; conditions: for SERUM TALP (alkaline phosphatase) / URINE CALCIUM / URINE HP/Cr (hydroxyproline/creatinine ratio) / URINE PHOSPHORUS: DHEA 10 mg percutaneously, EM-800 75 μg orally, once daily; for decrease of urinary hydroxyproline/creatinine ratio, marker of bone resorption / increase of serum alkaline phosphatase activity, marker of bone formation: versus control
From the text: Data are expressed as the means±SEM. **: P<0.01 experimental versus respective control.
It is particularly important to indicate that the combination of DHEA and EM-800 exerts unexpected beneficial effects on important biochemical parameters of bone metabolism. […] Moreover, no effect of DHEA alone could be detected on daily urinary calcium or phosphorus excretion (Luo, Sourla et al. 1997). EM-800, on the other hand, decreased the urinary hydroxyproline/creatinine ratio by 48% while, similarly to DHEA, no effect of EM-800 was seen on urinary calcium or phosphorus excretion. EM-800, moreover, had no effect on serum alkaline phosphatase activity, a marker of bone formation while DHEA increased the value of the parameter by about 75% (Luo, Sourla et al. 1997) (Table 2).
Thus, the addition of DHEA to EM-800 increases by 50% of the inhibitory effect of EM-800 on bone reabsorption.

[4] = test system: postmenopausal women suffering from vaginal atrophy; conditions: daily intravaginal, 3 months; cited from earlier work
[5] = test system: ovariectomized rats; experiment: bone histomorphometry after 12-month treatment of ovariectomized rats; format: in vivo, rat; conditions: 12 months
Method: (§1) FIG. 6 is a bar graph comparing the effect of 12-month treatment with dehydroepiandrosterone (DHEA) alone or in combination with Flutamide or EM-800 on trabecular bone volume in ovariectomized rats. Intact animals are added as additional controls. Data are presented as mean±SEM **p<0.01 versus OVX Control.
as §1, with “7” for “6”, “number of” for “bone volume in”
Note the reduced amount of trabecular bone (T) in ovariectomized control animals (B), and the significant increase in trabecular bone volume (T) induced after DHEA administration (C). […] Modified trichrome Masson-Goldner, magn.×80. T: Trabeculae, GP: Growth Plate.
Importantly, the combination of EM-800 and DHEA in ovariectomized rats treated for 12 months had beneficial effects on bone morphometry. Trabecular bone volume is particularly important for bone strength and to prevent bone fractures.

[6] = solid state stability; format: physicochemical
[7] = test system: ovariectomized rat; conditions: rat after ovariectomy; cited from earlier work
[8] = test system: postmenopausal women; experiment: serum lipids in postmenopausal women given oral EM-800; format: in vivo, human

## CC/C(=C(\c1ccccc1)c1ccc(OCCN(C)C)cc1)c1ccccc1 [Tamoxifen, (Z)-2-[4-(1,2-diphenyl-1-butenyl)phenoxy]-N,N-dimethylethanamine]
[1]
  effect on estrogen-sensitive parameter alkaline phosphatase: stimulate, to various degrees

## C[C@]12CC[C@H](O)CC1=CC[C@@H]1[C@@H]2CC[C@]2(C)C(=O)CC[C@@H]12 [DHEA, dehydroepiandrosterone]
[2]; 12 months
  abdominal fat measurements: no significant change
  body weight: no change
  decrease in fasting plasma insulin levels: 17%
  decrease in plasma bone alkaline phosphatase: 22%
  decrease in subcutaneous skin fold thickness: 9.8%
  decrease in urinary hydroxyproline: 38%
  decrease of fasting plasma glucose: 12%
  decrease of femoral fat (midthigh, computed tomography): 3.8%
  increase in bone mass density at the hip: 2.3%
  increase in bone mass density at the hip Ward's triangle: 3.75%
  increase in bone mass density at the lumbar spine level: 2.2%
  increase in femoral muscular area (midthigh, computed tomography): 3.5%
  increase over control in plasma osteocalcin: 135%
  plasma triglycerides: not affected
[2]; after 12 months, all women
  endometrium histology: remained completely atrophic
[2]; after 12 months
  increase in index of sebum secretion: 79%
[2]; women with a maturation value of zero at onset of therapy
  women with stimulated vaginal epithelium maturation: 8 out of 10
[3]
  effect on daily urinary calcium or phosphorus excretion: no effect
  SERUM TALP (alkaline phosphatase): 198.38 ± 30.76* IU/L
  URINE CALCIUM: 25.87 ± 3.54 μmol/24 h/100 g
  URINE HP/Cr (hydroxyproline/creatinine ratio): 14.02 ± 1.59 μmol/mmol
  URINE PHOSPHORUS: 151.41 ± 14.57 μmol/24 h/100 g
  decrease of urinary hydroxyproline/creatinine ratio, marker of bone resorption: did not affect; also recorded: did not show any effect
  increase of serum alkaline phosphatase activity, marker of bone formation: about 75%
[4]
  circulating estradiol or testosterone: no change
  domains of sexual dysfunction (desire, arousal, orgasm and pleasure): significant improvement
  symptoms and signs of vaginal atrophy: rapid and very marked improvement
[5]
  increase in trabecular bone number compared to ovariectomized controls: 137%
  trabecular bone number: 1.27±0.1 per mm
  trabecular bone volume of the tibia: 11.9±0.6%

## CC1=C(c2ccc(O)cc2)[C@H](c2ccc(OCCN3CCCCC3)cc2)Oc2cc(O)ccc21.Cl [EM-652.HCl, (S)-(+)-7-hydroxy-3-(4′-hydroxyphenyl)-4-methyl-2-(4″-(2′″-piperidinoethoxy)phenyl)-2H-1 benzopyran hydrochloride]
[6]
  solid state stability: good solid state stability

## CC/C(=C(\c1ccc(I)cc1)c1ccc(OCCN2CCCC2)cc1)c1ccccc1 [Idoxifene, (E)-1-[2-[4-[1-(4-Iodophenyl)-2-phenyl-1-butenyl]phenoxy]ethyl]pyrrolidine]
[1]
  effect on estrogen-sensitive parameter alkaline phosphatase: stimulate, to various degrees

## Cl.O=C(c1ccc(OCCN2CCCCC2)cc1)c1c(-c2ccc(O)cc2)sc2cc(O)ccc12 [Raloxifene, [2-(4-hydroxyphenyl)-6-hydroxybenzo[b]thien-3-yl][4-[2-(1-piperidinyl)ethoxy]phenyl]-methanone hydrochloride]
[7]
  dose at which maximal effect on bone resorption is achieved: 0.1 mg/kg
[1]
  effect on estrogen-sensitive parameter alkaline phosphatase: stimulate, to various degrees

## CC/C(=C(/c1ccc(OCCN(C)C)cc1)c1cccc(O)c1)c1ccccc1 [Droloxifene, (E)-3-[1-[4-[2-(Dimethylamino)ethoxy]phenyl]-2-phenyl-1-butenyl]phenol]
[1]
  effect on estrogen-sensitive parameter alkaline phosphatase: stimulate, to various degrees

## CC1=C(c2ccc(OC(=O)C(C)(C)C)cc2)[C@H](c2ccc(OCCN3CCCCC3)cc2)Oc2cc(OC(=O)C(C)(C)C)ccc21 [EM-800, (S)-(+)-4-[7-(2,2-dimethyl-1-oxopropoxy)-4-methyl-2-[4-[2-(1-piperidinyl)-ethoxy]phenyl]-2H-1-benzopyran-3-yl]-phenyl 2,2-dimethylpropanoate]
[8]; daily oral dose of 5, 10, 20 and 40 mg for 2 weeks
  decrease in total serum cholesterol: 10%
[8]; daily oral dose of 5, 10, 20 and 40 mg, at 1 week
  decrease in serum triglyceride levels: 15%
[7]
  dose at which maximal effect on bone resorption is achieved: 0.01 mg/kg
[3]
  effect on daily urinary calcium or phosphorus excretion: no effect
  SERUM TALP (alkaline phosphatase): 114.11 ± 11.26 IU/L
  URINE CALCIUM: 17.44 ± 4.5 μmol/24 h/100 g
  URINE HP/Cr (hydroxyproline/creatinine ratio): 6.81 ± 0.84** μmol/mmol
  URINE PHOSPHORUS: 102.03 ± 25.13 μmol/24 h/100 g
  decrease of urinary hydroxyproline/creatinine ratio, marker of bone resorption: 48%
  increase of serum alkaline phosphatase activity, marker of bone formation: no effect
[1]
  antiestrogenic activity in Ishikawa cells: pure antiestrogenic activity

## CN(C)CCOc1ccc(/C(=C(/CCCl)c2ccccc2)c2ccccc2)cc1 [Toremifene, (Z)-2-[4-(4-Chloro-1,2-diphenyl-1-butenyl)phenoxy]-N,N-dimethylethanamine]
[1]
  effect on estrogen-sensitive parameter alkaline phosphatase: stimulate, to various degrees

## COc1ccc(-c2sc3cc(O)ccc3c2Oc2ccc(OCCN3CCCCC3)cc2)cc1.Cl [Arzoxifene, 6-hydroxy-3-[4-[2-(1-piperidinyl)ethoxy]phenoxyl]-2-(4-methoxyphenyl)benzo[b]thiophene hydrochloride]
[1]
  effect on estrogen-sensitive parameter alkaline phosphatase: stimulate, to various degrees

## OCCOc1ccc(/C(=C(/CCCl)c2ccccc2)c2ccccc2)cc1 [Ospemifene, (Z)-2-[4-(4-chloro-1,2-diphenyl-1-butenyl)phenoxyl]ethanol]
[1]
  effect on estrogen-sensitive parameter alkaline phosphatase: stimulate, to various degrees
